One data set has as its system Long-Evans male rats. The data set is described as follows: IP administration of compounds in fasted Long-Evans male rats, 2 hr food intake. In kind it is in vivo. The following applies: Rattus norvegicus; male Long Evans rats fasted 18-20 hr; 30 mg/kg (ip) in 2% tween; food given after 30 min, weighed 2 hr later; vs vehicle; read-out: inhibition of feeding (2 hr food intake). The protocol:
Protocol for IP Administration of Compounds in Fasted Long-Evans Male Rats
Male Long Evans rats (85-100 g)were obtained from Harlan (Indianapolis, Ind.) and were given at least a one week acclimation period to Ambients animal care facilities. Animals were individually housed and were provided ad libitum food and water. For testing, rats were fasted for 18-20 hr (overnight) prior to the start of the experiment. On the test day, test compounds or vehicle was administered via the intraperitoneal (i.p.) route of administration. Test compounds were suspended in a 2% tween solution; the 2% tween solution was used as the vehicle treatment (control group). Group sizes for each treatment were 6-8 animals. After 30 min, premeasured food was placed into the cages. Two hours later, the food was weighed again. The difference between 2 hr weight and the premeasured weight was taken as 2 hr food intake.

A further data set concerns Male BALB-C mice. The data set is described as follows: IP administration of compounds in fasted male BALB-C mice, 2 hr food intake. The data set is classed as in vivo. As to conditions: Mus musculus; male BALB-C mice fasted 18-20 hr; 30 mg/kg (ip) in 2% tween; food given after 30 min, weighed 2 hr later; vs vehicle; read-out: inhibition of feeding (2 hr food intake). From the text: Protocol For IP Administration Of Compounds In Male BALB-C Mice.
Male BALB-C mice (20-25 g)were obtained from Charles Rivers (Wilmington, Mass.) and were given at least a one week acclimation period to Amgen's animal care facilities. Animals were housed 10/cage and were provided ad libitum food and water. For testing, mice were fasted for 18-20 hr (overnight) prior to the start of the experiment. On the day of the experiment, mice were removed from group housing and placed into individual cages (without food). Test compounds or vehicle was then administered via the intraperitoneal (i.p.) route of administration. Test compounds were suspended in a 2% tween solution; the 2% tween solution was used as the vehicle treatment (control group). Group sizes for each treatment were 6-8 animals. After 30 min, premeasured food was placed into the cages. Two hours later, the food was weighed again. The difference between 2 hr weight and the premeasured weight was taken as 2 hr food intake.

Structures can show the parent of a compound that is named as a salt.

Take `Nc1nc(N2CCCCC2)c2[nH]c(-c3ccccc3)cc2n1` [Example 66e, 6-Phenyl-4-piperidylpyrrolo[3,2-d]pyrimidine-2-yl Amine Hydrochloride Hydrate]: the inhibition in vivo at 30 mg/kg with Long-Evans male rats and with Male BALB-C mice was ≥ 10% in each case. For the molecule `Cc1nc(N2CCCCC2)c2[nH]c(-c3cc(C)oc3C)cc2n1` [Example 108, 2,5-Dimethyl-3-(2-methyl-4-piperidylpyrrolo[4,5-d]pyrimidin-6-yl)furan Hydrochloride Monohydrate], the inhibition in vivo at 30 mg/kg with Long-Evans male rats and in the data set with Male BALB-C mice was ≥ 10% in each case. Turning to `CCc1nc(N2CCCCC2)c2[nH]c(-c3ccccc3)cc2n1` [Example 68c, 2-Ethyl-6-phenyl-4-piperidylpyrrolo[3,2-d]pyrimidine Hydrochloride Monohydrate], the inhibition in vivo at 30 mg/kg in the data set with Long-Evans male rats and in the data set with Male BALB-C mice was ≥ 10% throughout. In the case of `Cc1nc(N2CCCCC2)c2[nH]c(-c3ccc(F)c(F)c3)cc2n1` [Example 121, 6-(3,4-Difluorophenyl)-2-methyl-4-piperidylpyrrolo[3,2-d]pyrimidine Hydrochloride Hydrate], the inhibition in vivo at 30 mg/kg with Long-Evans male rats and in the data set on Male BALB-C mice was ≥ 10% each time.

For orientation: melting point means the temperature, or range, at which the solid turns liquid. Turning to `Cc1nc(N2CCCCC2)c2[nH]c(-c3ccc(Cl)cc3)cc2n1.Cl` [Example 92d, 6-(4-Chlorophenyl)-2-methyl-4-piperidylpyrrolo[3,2-d]pyrimidine Hydrochloride], the melting point was 253.8 to 255.2 °C (dec.). Further, in the data set with Male BALB-C mice, the inhibition in vivo at 30 mg/kg is ≥ 10%. Consider `Cc1nc(N2CCCCC2C)c2[nH]c(-c3ccccc3)cc2n1` (stereo not drawn) [Example 63, 2-Methyl-6-phenyl-4-(2-methylpiperidinyl)pyrrolo(3,2-d)pyrimidine Hydrochloride Monohydrate], for which the inhibition in vivo at 30 mg/kg in the data set with Long-Evans male rats and with Male BALB-C mice was ≥ 10% each time. On to `Cc1nc(N2CCCCC2)c2oc(-c3ccc(Cl)cc3)cc2n1` [Example 95c, 6-(4-Chlorophenyl)-2-methyl-4-piperidinylfurano-[3,2-d]-pyrimidine Hydrochloride Hydrate], for which the inhibition in vivo at 30 mg/kg with Long-Evans male rats and with Male BALB-C mice was ≥ 10% each time. As for `Cc1nc(N2CCCCC2)c2[nH]c(-c3ccc(C(F)(F)F)cc3)cc2n1` [Example 111, 2-Methyl-4-piperidyl-6-[4-(trifluoromethyl)phenyl]pyrrolo[3,2-d]pyrimidine Hydrochloride Hydrate], the inhibition in vivo at 30 mg/kg in the data set on Long-Evans male rats and with Male BALB-C mice was ≥ 10% in each case. In the case of `Cc1nc(N2CCCCC2)c2[nH]c(C3CCCCC3)cc2n1` [Example 80d, 6-Cyclohexyl-2-methyl-4-piperidylpyrrolo[3,2-d]pyrimidine Hydrochloride Hydrate], the inhibition in vivo at 30 mg/kg in the data set with Long-Evans male rats and with Male BALB-C mice was ≥ 10% each time. For `Cc1nc(N2CCCCC2)c2sc(-c3ccc(Cl)cc3)cc2n1` [Example 33, 6-(4-Chlorophenyl)-2-methyl-4-piperidylthiopheno[3,2-d]pyrimidine Hydrochloride], the inhibition in vivo at 30 mg/kg in the data set on Long-Evans male rats and with Male BALB-C mice was ≥ 10% each time. Take `Cc1nc(N2CCCCC2)c2[nH]c(-c3ccn(S(=O)(=O)c4ccccc4)c3)cc2n1` [Example 101, 3-(2-Methyl-4-piperidylpyrrolo[4,5-d]pyrimidin-6-yl)-1-(phenylsulfonyl)pyrrole Hydrochloride Hydrate]: the inhibition in vivo at 30 mg/kg with Long-Evans male rats and in the data set on Male BALB-C mice was ≥ 10% throughout.

Take `Cc1nc(N2CCCCC2)c2[nH]c(-c3ccc(Cl)c(Cl)c3)cc2n1` [Example 118, 6-(3,4-Dichlorophenyl)-2-methyl-4-piperidylpyrrolo[3,2-d]pyrimidine Hydrochloride Monohydrate]: the inhibition in vivo at 30 mg/kg with Long-Evans male rats and in the data set on Male BALB-C mice was ≥ 10% throughout. Consider `Cc1nc(N2CCCCC2)c2[nH]c(-c3ccc(O)cc3)cc2n1` [Example 72, 2-methyl-4-piperidyl-6-(4-hydroxyphenyl)pyrrolo[3,2-d]pyrimidine], for which the inhibition in vivo at 30 mg/kg in the data set with Long-Evans male rats and in the data set on Male BALB-C mice was ≥ 10% each time. As to `Cc1nc(N2CC=CC2)c2[nH]c(-c3cccc(C(F)(F)F)c3)cc2n1` [Example 197d, 2-Methyl-4-(3-pyrrolinyl)-6-[3-(trifluoromethyl)phenyl]pyrrolo[3,2-d]pyrimidine Hydrochloride Monohydrate], the inhibition in vivo at 30 mg/kg in the data set on Long-Evans male rats and with Male BALB-C mice was ≥ 10% throughout. For `Cc1nc(N2CC=CCC2)c2[nH]c(-c3ccccc3)cc2n1` [Example 65, 2-Methyl-6-phenyl-4-(1,2,3,6-tetrahydropyridinyl)pyrrolo[3,2-d]pyrimidine Hydrochloride], the inhibition in vivo at 30 mg/kg in the data set with Long-Evans male rats and in the data set with Male BALB-C mice was ≥ 10% throughout. Regarding `CC1=C(c2cc3nc(C)nc(N4CCCCC4)c3[nH]2)CCC1.Cl` [Example 98, 2-Methyl-6-(2-methylcyclopent-1-enyl)-4-piperidylpyrrolo[3,2-d]pyrimidine Hydrochloride], the melting point lay in the range of 224.5 to 226 °C. Also, the inhibition in vivo at 30 mg/kg in the data set on Male BALB-C mice was ≥ 10%.

Turning to `Cc1nc(N2CC=CC2)c2[nH]c(-c3ccccc3)cc2n1` [Example 61, 2-Methyl-6-phenyl-4-(pyrrolinyl)pyrrolo[3,2-d]pyrimidine Hydrochloride Monohydrate], the inhibition in vivo at 30 mg/kg in the data set on Long-Evans male rats and in the data set on Male BALB-C mice was ≥ 10% each time. Consider `COc1ccc(-c2cc3nc(C)nc(N4CCCCC4)c3[nH]2)cc1F` [Example 119, 2-Fluoro-1-methoxy-4-[2-methyl-4-piperidylpyrrolo[4,5-d]pyrimidin-6-yl]benzene Hydrochloride Hydrate], for which the inhibition in vivo at 30 mg/kg in the data set with Long-Evans male rats and with Male BALB-C mice was ≥ 10% throughout. For the molecule `Cc1nc(N2CCCCC2)c2sc(-c3ccc(F)cc3)cc2n1` [Example 217, 6-(4-Fluorophenyl)-2-methyl-4-piperidylthiopheno[3,2-d]pyrimidine Hydrochloride Hydrate], the inhibition in vivo at 30 mg/kg in the data set with Long-Evans male rats and in the data set with Male BALB-C mice was ≥ 10% throughout.

Regarding `Cc1nc(N2CCCCC2)c2[nH]c(-c3cc(F)c(F)c(F)c3)cc2n1` [Example 116, 2-Methyl-4-piperidyl-6-(3,4,5-trifluorophenyl)pyrrolo[3,2-d]pyrimidine Hydrochloride Hydrate], the inhibition in vivo at 30 mg/kg in the data set with Long-Evans male rats and in the data set with Male BALB-C mice was ≥ 10% in each case.

For `Cc1nc(N2CCCCC2)c2[nH]c(C(C)(C)C)cc2n1` [Example 97, 6-(tert-Butyl)-2-methyl-4-piperidylpyrrolo[3,2-d]pyrimidine Hydrochloride Hydrate], the inhibition in vivo at 30 mg/kg in the data set with Long-Evans male rats and in the data set with Male BALB-C mice was ≥ 10% in each case. On to `Cc1nc(N2CCCCC2)c2[nH]c(C34C[C@H]5C[C@@H](C3)C[C@@H](C4)C5)cc2n1` [Example 81d, 6-Adamantanyl-2-methyl-4-piperidylpyrrolo[3,2-d]pyrimidine Hydrochloride Monohydrate], for which, in the data set on Male BALB-C mice, the inhibition in vivo at 30 mg/kg is ≥ 10%. In the case of `Cc1nc(N2CCCCC2)c2sc(-c3ccccc3)cc2n1` [Example 32, 2-Methyl-6-phenyl-4-piperidylthiopheno[3,2-d]pyrimidine Hydrochloride], the inhibition in vivo at 30 mg/kg in the data set with Long-Evans male rats and in the data set on Male BALB-C mice was ≥ 10% each time.

For the molecule `Cc1nc(N2CCCCC2)c2[nH]c(-c3ccc4c(c3)CCO4)cc2n1` [Example 131, 5-[2-Methyl-4-piperidylpyrrolo[4,5-d]pyrimidin-6-yl]-2,3-dihydrobenzo[b]furan Hydrochloride Hydrate], the inhibition in vivo at 30 mg/kg in the data set on Male BALB-C mice is ≥ 10%. On to `CCC1CCCCN1c1nc(C)nc2cc(-c3ccccc3)[nH]c12` (stereo not drawn) [Example 64, 2-Methyl-6-phenyl-4-(2-ethylpiperidinyl)pyrrolo[3,2-d]pyrimidine Hydrochloride Hydrate], for which the inhibition in vivo at 30 mg/kg with Male BALB-C mice is ≥ 10%.

As for `Cc1nc(N2CCCCC2)c2[nH]c(-c3ccc4c(c3)OCCO4)cc2n1` [Example 125, 6-(2-Methyl-4-piperidylpyrrolo[4,5-d]pyrimidin-6-yl)-2H,3H-benzo[e]1,4-dioxane Hydrochloride Monohydrate], the inhibition in vivo at 30 mg/kg in the data set with Male BALB-C mice was ≥ 10%. Turning to `Cc1nc(N2CCCCC2)c2[nH]c(-c3cccc(F)c3)cc2n1` [Example 103, 6-(3-Fluorophenyl)-2-methyl-4-piperidylpyrrolo[3,2-d]pyrimidine Hydrochloride Monohydrate], the inhibition in vivo at 30 mg/kg with Male BALB-C mice was ≥ 10%. Consider `Cc1nc(N2CCCCC2)c2[nH]c(-c3ccc4c(c3)CCC4)cc2n1` [Example 130, 6-Indan-5-yl-2-methyl-4-piperidylpyrrolo[3,2-d]pyrimidine Hydrochloride Monohydrate], for which, in the data set on Male BALB-C mice, the inhibition in vivo at 30 mg/kg is ≥ 10%. Consider `CCOC(=O)c1[nH]c(-c2ccc(F)cc2)cc1N` [Example 73a, ethyl 3-amino-5-(4-fluorophenyl)pyrrole-2-carboxylate], for which, in the data set on Male BALB-C mice, the inhibition in vivo at 30 mg/kg was ≥ 10%.

For the origin of these results see patent publication US6583154B1, “Compounds and methods which modulate feeding behavior and related diseases” (Amgen Inc., priority 1998, dated 2003).
